Assay results from patent US4032573A, “Ortho-acylated anilide derivatives and salts thereof” (Sumitomo Chemical Company, Limited, priority 1976, dated 1977).

What was measured:
guinea pigs = assay: Local anesthetic activity in guinea pigs (method of Bulbring and Waida), intracutaneous injection; type: in vivo
Procedure: 1. Local anesthetic activity
The local anesthetic activity of each of the compounds was determined in accordance with the method of Bulbring E. and Waida, Journal Pharmacol. Exp. Ther., 85, 78 (1945).

mice = assay: Anti-arrhythmic activity in mice (method of Lawson), intraperitoneal injection; type: in vivo; conditions: Mus musculus, ip
Procedure: 2. Anti-arrhythmic activity
The anti-arrhythmic activity of each of the compounds was determined in accordance with the method of J. W. Lawson, Journal Pharmacol. Exp. Ther., 160, 22 (1967).

Q: For `CCN(CC)CC(=O)Nc1ccc(C(C)=O)cc1`, which “Local anesthetic activity in guinea pigs ED50 intracutaneous injection” value (“Local anesthetic activity” for short) (guinea pigs) is on record?
A: Its value is 1.0 W/V %.

Q: And the ED50 (mice)?
A: The ED50 was 250 mg/kg.

Q: How did the “Local anesthetic activity” value (guinea pigs) turn out when `CCCC(=O)c1cccc(C)c1NC(=O)CCN(CC)CC` was run?
A: The value was 0.09 W/V %.

Q: And the ED50 (mice)?
A: The ED50 was 25 mg/kg.

Q: With `CCN(CC)CC(=O)Nc1cccc(C(C)=O)c1` as the compound, how does the “Local anesthetic activity” value (guinea pigs) read?
A: The value was 1.0 W/V %.

Q: What about the ED50 (mice) of the same compound?
A: The ED50 was 180 mg/kg.

Q: With `CCN(CC)CC(=O)Nc1c(C)cccc1C(C)=O` as the compound, how does the “Local anesthetic activity” value (guinea pigs) read?
A: The value was 0.12 W/V %.

Q: What about the ED50 (mice) of the same compound?
A: The ED50 was 80 mg/kg.

Q: For `CCN(CC)CCC(=O)Nc1cc(C(C)=O)ccc1C`, which “Local anesthetic activity” value (guinea pigs) is on record?
A: The value was 1.48 W/V %.

Q: What about the ED50 (mice) of the same compound?
A: The ED50 was 97 mg/kg.

Q: For `CCN(CC)CCC(=O)Nc1c(C)cccc1C(C)=O`, which “Local anesthetic activity” value (guinea pigs) is on record?
A: Its value is 0.33 W/V %.

Q: What about the ED50 (mice) of the same compound?
A: Its ED50 is 50 mg/kg.
